Here are results for one molecule from publication PMC5218480 (PLoS ONE, 2017).

The test system of this experiment is MV-4-11 cells. The experiment in a line: Gene expression microarray analysis (Affymetrix PrimeView) and GSEA. The arrangement: RFU PODN (11730768_x_at) / Fold change /veh PODN (11730768_x_at) / RFU LINC00158 (11744669_a_at) / Fold change /veh LINC00158 (11744669_a_at) / RFU DUSP10 (11751237_a_at) / Fold change /veh DUSP10 (11751237_a_at) / RFU ID3 (11757404_x_at) / Fold change /veh ID3 (11757404_x_at) / RFU PLEKHG5 (11737974_s_at) / Fold change /veh PLEKHG5 (11737974_s_at) / RFU LRRC4B (11730491_at) / Fold change /veh LRRC4B (11730491_at) / RFU GIMAP4 (11747438_a_at) / Fold change /veh GIMAP4 (11747438_a_at) / RFU KRT8 (11758183_x_at) / Fold change /veh KRT8 (11758183_x_at) / RFU CNN1 (11734310_a_at) / Fold change /veh CNN1 (11734310_a_at) / RFU VPS37D (11726825_at) / Fold change /veh VPS37D (11726825_at) / RFU C10orf10 (11716522_x_at) / Fold change /veh C10orf10 (11716522_x_at) / RFU KIR2DL2 /// KIR2DL4 /// KIR2DL5A /// KIR2DL5B /// KIR2DS1 /// KIR2DS2 /// KIR2DS3 /// KIR2DS4 /// KIR3DL3 /// KIR3DL3 /// KIR3DS1 (11738374_at) / Fold change /veh KIR2DL2 /// KIR2DL4 /// KIR2DL5A /// KIR2DL5B /// KIR2DS1 /// KIR2DS2 /// KIR2DS3 /// KIR2DS4 /// KIR3DL3 /// KIR3DL3 /// KIR3DS1 (11738374_at) / RFU C1QL1 (11718748_at) / Fold change /veh C1QL1 (11718748_at) / RFU TMPRSS4 (11747572_a_at) / Fold change /veh TMPRSS4 (11747572_a_at) / RFU HAMP (11756126_x_at) / Fold change /veh HAMP (11756126_x_at) / RFU RNFT2 (11725882_a_at) / Fold change /veh RNFT2 (11725882_a_at) / RFU NR4A2 (11747474_a_at) / Fold change /veh NR4A2 (11747474_a_at) / RFU ABCC12 (11746883_a_at) / Fold change /veh ABCC12 (11746883_a_at) / RFU TMEM136 (11760407_x_at) / Fold change /veh TMEM136 (11760407_x_at) / RFU CLDN22 /// WWC2 (11732394_at) / Fold change /veh CLDN22 /// WWC2 (11732394_at) / RFU HLA-DPB1 (11760878_x_at) / Fold change /veh HLA-DPB1 (11760878_x_at) / RFU SPINT1 (11716480_a_at) / Fold change /veh SPINT1 (11716480_a_at) / RFU GAP43 (11754022_s_at) / Fold change /veh GAP43 (11754022_s_at) / RFU A4GNT (11735810_at) / Fold change /veh A4GNT (11735810_at) / RFU PRB3 (11715151_x_at) / Fold change /veh PRB3 (11715151_x_at) / RFU TUBB4B (11761932_at) / Fold change /veh TUBB4B (11761932_at) / RFU CAPN14 (11732068_a_at) / Fold change /veh CAPN14 (11732068_a_at) / RFU TMCC2 (11721928_a_at) / Fold change /veh TMCC2 (11721928_a_at) / RFU IRGQ (11745062_a_at) / Fold change /veh IRGQ (11745062_a_at) / RFU FAM174B (11720279_a_at) / Fold change /veh FAM174B (11720279_a_at) / RFU TMPRSS4 (11748680_a_at) / Fold change /veh TMPRSS4 (11748680_a_at) / RFU FAM212B (11763350_a_at) / Fold change /veh FAM212B (11763350_a_at) / RFU PLEKHG5 (11743358_a_at) / Fold change /veh PLEKHG5 (11743358_a_at) / RFU ZSCAN30 (11745921_a_at) / Fold change /veh ZSCAN30 (11745921_a_at) / RFU CMKLR1 (11741424_a_at) / Fold change /veh CMKLR1 (11741424_a_at) / RFU LOC101060620 /// MAPK8IP1 (11723275_at) / Fold change /veh LOC101060620 /// MAPK8IP1 (11723275_at) / RFU SPTSSB (11747773_x_at) / Fold change /veh SPTSSB (11747773_x_at) / RFU PRSS12 (11739890_at) / Fold change /veh PRSS12 (11739890_at) / RFU BIN1 (11741810_x_at) / Fold change /veh BIN1 (11741810_x_at) / RFU WNT11 (11732464_a_at) / Fold change /veh WNT11 (11732464_a_at) / RFU C10orf10 (11716521_a_at) / Fold change /veh C10orf10 (11716521_a_at) / RFU C5orf56 (11738089_at) / Fold change /veh C5orf56 (11738089_at) / RFU CYB561 (11721691_x_at) / Fold change /veh CYB561 (11721691_x_at) / RFU ANKRD19P (11752326_a_at) / Fold change /veh ANKRD19P (11752326_a_at) / RFU OR2T12 /// OR2T33 /// OR2T8 (11738714_s_at) / Fold change /veh OR2T12 /// OR2T33 /// OR2T8 (11738714_s_at) / RFU VCAN (11748164_a_at) / Fold change /veh VCAN (11748164_a_at) / RFU JSRP1 (11732532_at) / Fold change /veh JSRP1 (11732532_at) / RFU KRTAP10-11 (11738290_x_at) / Fold change /veh KRTAP10-11 (11738290_x_at) / RFU MYO3A (11730013_a_at) / Fold change /veh MYO3A (11730013_a_at) / RFU EBF3 (11725865_a_at) / Fold change /veh EBF3 (11725865_a_at) / RFU CAMK2N1 (11719241_x_at) / Fold change /veh CAMK2N1 (11719241_x_at) / RFU C5orf56 (11738088_a_at) / Fold change /veh C5orf56 (11738088_a_at) / RFU OLFML3 (11715873_a_at) / Fold change /veh OLFML3 (11715873_a_at) / RFU LOC100653217 /// NTM (11731650_a_at) / Fold change /veh LOC100653217 /// NTM (11731650_a_at) / RFU MAPK11 (11762145_a_at) / Fold change /veh MAPK11 (11762145_a_at) / RFU FIZ1 (11724087_x_at) / Fold change /veh FIZ1 (11724087_x_at) / RFU OASL (11726364_x_at) / Fold change /veh OASL (11726364_x_at) / RFU SOX15 (11748057_x_at) / Fold change /veh SOX15 (11748057_x_at) / RFU CD79A (11719716_a_at) / Fold change /veh CD79A (11719716_a_at) / RFU HIST1H1D (11736915_at) / Fold change /veh HIST1H1D (11736915_at) / RFU CASKIN2 (11723855_a_at) / Fold change /veh CASKIN2 (11723855_a_at) / RFU LOC730098 (11760151_x_at) / Fold change /veh LOC730098 (11760151_x_at) / RFU OR4N2 (11742367_at) / Fold change /veh OR4N2 (11742367_at) / RFU PRRT2 (11749266_a_at) / Fold change /veh PRRT2 (11749266_a_at) / RFU SNX32 (11753110_a_at) / Fold change /veh SNX32 (11753110_a_at) / RFU CDHR5 (11726645_a_at) / Fold change /veh CDHR5 (11726645_a_at) / RFU RCAN1 (11760418_a_at) / Fold change /veh RCAN1 (11760418_a_at) / RFU FAM167A (11723789_a_at) / Fold change /veh FAM167A (11723789_a_at) / RFU FAM26E (11764081_at) / Fold change /veh FAM26E (11764081_at) / RFU ISYNA1 (11749810_s_at) / Fold change /veh ISYNA1 (11749810_s_at) / RFU ACY1 (11761880_at) / Fold change /veh ACY1 (11761880_at) / RFU 11764098_at / Fold change /veh 11764098_at / RFU SAMD14 (11745864_x_at) / Fold change /veh SAMD14 (11745864_x_at) / RFU NPB (11741838_a_at) / Fold change /veh NPB (11741838_a_at) / RFU TMPRSS6 (11731388_a_at) / Fold change /veh TMPRSS6 (11731388_a_at) / RFU KRTAP10-2 (11738614_at) / Fold change /veh KRTAP10-2 (11738614_at) / RFU ARHGAP8 /// PRR5-ARHGAP8 (11727945_x_at) / Fold change /veh ARHGAP8 /// PRR5-ARHGAP8 (11727945_x_at) / RFU KRTAP5-7 /// NADSYN1 (11734609_at) / Fold change /veh KRTAP5-7 /// NADSYN1 (11734609_at) / RFU RASL12 (11751679_a_at) / Fold change /veh RASL12 (11751679_a_at) / RFU CDKN2B (11736163_a_at) / Fold change /veh CDKN2B (11736163_a_at) / RFU PRF1 (11729649_at) / Fold change /veh PRF1 (11729649_at) / RFU, ZNF638 /// ZNF638-IT1 / Fold change vs veh, ZNF638 /// ZNF638-IT1 / RFU, PANK3 / Fold change vs veh, PANK3 / RFU, SH3YL1 / Fold change vs veh, SH3YL1 / RFU, ZEB2 / Fold change vs veh, ZEB2 / RFU, NRIP1 / Fold change vs veh, NRIP1 / RFU, PTTG1IP / Fold change vs veh, PTTG1IP / RFU, CAPN2 / Fold change vs veh, CAPN2 / RFU, MED14 / Fold change vs veh, MED14 / RFU, SNORA58 / Fold change vs veh, SNORA58 / RFU, C1orf63 / Fold change vs veh, C1orf63 / RFU, LRRFIP1 / Fold change vs veh, LRRFIP1 / RFU, NDUFAF7 / Fold change vs veh, NDUFAF7 / RFU, SLC12A2 / Fold change vs veh, SLC12A2 / RFU, IBTK / Fold change vs veh, IBTK / RFU, ESF1 / Fold change vs veh, ESF1 / Fold change vs veh, TMEM50B / RFU, TAOK1 / Fold change vs veh, TAOK1 / RFU, ACBD3 / Fold change vs veh, ACBD3 / RFU, TMA16 / Fold change vs veh, TMA16 / RFU, RWDD3 / Fold change vs veh, RWDD3 / RFU, BCAT1 / Fold change vs veh, BCAT1 / RFU, EDEM3 / Fold change vs veh, EDEM3 / RFU, TMEM33 / Fold change vs veh, TMEM33 / RFU, WDR75 / Fold change vs veh, WDR75 / RFU, AHCTF1 / Fold change vs veh, AHCTF1 / RFU, TFRC / Fold change vs veh, TFRC / RFU, ZDHHC17 / Fold change vs veh, ZDHHC17 / RFU, NOM1 / Fold change vs veh, NOM1 / RFU, ARL8B / Fold change vs veh, ARL8B / RFU, ZBTB11 / Fold change vs veh, ZBTB11 / RFU, TAMM41 / Fold change vs veh, TAMM41 / RFU, KIAA1704 /// LOC100996395 / Fold change vs veh, KIAA1704 /// LOC100996395 / RFU, ING1 / Fold change vs veh, ING1 / RFU, TRMT61B / Fold change vs veh, TRMT61B / RFU, FUBP3 / Fold change vs veh, FUBP3 / RFU, TP53 / Fold change vs veh, TP53 / RFU, TNKS2 / Fold change vs veh, TNKS2 / RFU, ZFP14 / Fold change vs veh, ZFP14 / RFU, ACTR2 / Fold change vs veh, ACTR2 / RFU, PPP3R1 / Fold change vs veh, PPP3R1 / RFU, PIK3R1 / Fold change vs veh, PIK3R1 / RFU, HNRNPA1 / Fold change vs veh, HNRNPA1 / RFU, RNF170 / Fold change vs veh, RNF170 / RFU, ZNF28 / Fold change vs veh, ZNF28 / RFU, RNGTT / Fold change vs veh, RNGTT / RFU, OGT / Fold change vs veh, OGT / RFU, BRD1 / Fold change vs veh, BRD1 / RFU, MARS / Fold change vs veh, MARS / RFU, ZNF655 / Fold change vs veh, ZNF655 / RFU, FAHD1 / Fold change vs veh, FAHD1 / RFU, BDP1 / Fold change vs veh, BDP1 / RFU, LRRCC1 / Fold change vs veh, LRRCC1 / RFU, ARID1A / Fold change vs veh, ARID1A / RFU, ZNF146 / Fold change vs veh, ZNF146 / RFU, ZNF330 / Fold change vs veh, ZNF330 / RFU, GPN3 / Fold change vs veh, GPN3 / RFU, C9orf123 / Fold change vs veh, C9orf123 / RFU, N4BP2L2 / Fold change vs veh, N4BP2L2 / RFU, ARFIP1 / Fold change vs veh, ARFIP1 / RFU, FAM179B / Fold change vs veh, FAM179B / RFU, BCL10 / Fold change vs veh, BCL10 / RFU, UHRF1BP1L / Fold change vs veh, UHRF1BP1L / RFU, BET1 / Fold change vs veh, BET1 / RFU, CNOT2 / Fold change vs veh, CNOT2 / RFU, ZNF268 / Fold change vs veh, ZNF268 / Fold change vs veh, ZNF507 / RFU, DGCR2 / Fold change vs veh, DGCR2 / RFU, WDSUB1 / Fold change vs veh, WDSUB1 / Fold change vs veh, HSP90B1 /// MIR3652 / RFU, ADSS / Fold change vs veh, ADSS / RFU, GK / Fold change vs veh, GK / RFU, ZNF148 / Fold change vs veh, ZNF148 / RFU, TAF9 / Fold change vs veh, TAF9 / RFU, SLC1A5 / Fold change vs veh, SLC1A5 / RFU, SLMO2 / Fold change vs veh, SLMO2 / RFU, ABCC4 / Fold change vs veh, ABCC4 / RFU, LOC101060439 /// RAP1B / Fold change vs veh, LOC101060439 /// RAP1B / RFU, RFX7 / Fold change vs veh, RFX7 / RFU, GTPBP10 / Fold change vs veh, GTPBP10 / RFU, CNEP1R1 / Fold change vs veh, CNEP1R1 / RFU, BIVM-ERCC5 /// ERCC5 / Fold change vs veh, BIVM-ERCC5 /// ERCC5 / RFU, ILF3 / Fold change vs veh, ILF3 / RFU 11762660_at / Fold change /veh 11762660_at / RFU VCAN (11757783_s_at) / Fold change /veh VCAN (11757783_s_at) / RFU DDX43 (11728927_at) / Fold change /veh DDX43 (11728927_at) / RFU KRT8 (11758188_x_at) / Fold change /veh KRT8 (11758188_x_at) / RFU NKD1 (11759106_at) / Fold change /veh NKD1 (11759106_at) / RFU SRD5A1 (11742802_a_at) / Fold change /veh SRD5A1 (11742802_a_at) / RFU TPSAB1 /// TPSB2 (11721975_s_at) / Fold change /veh TPSAB1 /// TPSB2 (11721975_s_at) / RFU GSTM3 (11746129_a_at) / Fold change /veh GSTM3 (11746129_a_at) / RFU IL23R (11737362_x_at) / Fold change /veh IL23R (11737362_x_at) / RFU TMEM51 (11727254_a_at) / Fold change /veh TMEM51 (11727254_a_at) / RFU PIWIL2 (11732686_x_at) / Fold change /veh PIWIL2 (11732686_x_at) / RFU ORM1 (11744905_x_at) / Fold change /veh ORM1 (11744905_x_at) / RFU CCDC152 (11743942_at) / Fold change /veh CCDC152 (11743942_at) / RFU ECM1 (11717891_a_at) / Fold change /veh ECM1 (11717891_a_at) / RFU IL23R (11748794_a_at) / Fold change /veh IL23R (11748794_a_at) / RFU TNFAIP8L3 (11732012_x_at) / Fold change /veh TNFAIP8L3 (11732012_x_at) / RFU MBOAT4 (11741988_at) / Fold change /veh MBOAT4 (11741988_at) / RFU 11764193_at / Fold change /veh 11764193_at / RFU TMEM53 (11763286_at) / Fold change /veh TMEM53 (11763286_at) / RFU MAGEB2 (11727129_at) / Fold change /veh MAGEB2 (11727129_at) / RFU TMEM200A (11744735_a_at) / Fold change /veh TMEM200A (11744735_a_at) / RFU CCDC152 (11751479_a_at) / Fold change /veh CCDC152 (11751479_a_at) / RFU FAM211A (11726209_a_at) / Fold change /veh FAM211A (11726209_a_at) / RFU RGS16 (11746705_a_at) / Fold change /veh RGS16 (11746705_a_at) / RFU VCAN (11755009_s_at) / Fold change /veh VCAN (11755009_s_at) / RFU RHOB (11743442_s_at) / Fold change /veh RHOB (11743442_s_at) / RFU RGS16 (11720943_a_at) / Fold change /veh RGS16 (11720943_a_at) / RFU RGS16 (11720944_at) / Fold change /veh RGS16 (11720944_at) / RFU, VPS4B / Fold change vs veh, VPS4B / RFU, CREB1 / Fold change vs veh, CREB1 / RFU, DNAJC13 / Fold change vs veh, DNAJC13 / RFU, GNAQ / Fold change vs veh, GNAQ / RFU, CDK5R1 / Fold change vs veh, CDK5R1 / RFU, ZRANB3 / Fold change vs veh, ZRANB3 / RFU, CUL4A / Fold change vs veh, CUL4A / RFU, CCNY / Fold change vs veh, CCNY / RFU, UFL1 / Fold change vs veh, UFL1 / RFU, COG3 / Fold change vs veh, COG3 / RFU, DIAPH2 / Fold change vs veh, DIAPH2 / RFU, SKA2 / Fold change vs veh, SKA2 / RFU, AFF3 / Fold change vs veh, AFF3 / RFU, LMF1 / Fold change vs veh, LMF1 / RFU, IPO11 / Fold change vs veh, IPO11 / RFU, DFFB / Fold change vs veh, DFFB / RFU, FOXP1 / Fold change vs veh, FOXP1 / RFU, CARD8 / Fold change vs veh, CARD8 / RFU, STRN3 / Fold change vs veh, STRN3 / RFU, ADK / Fold change vs veh, ADK / RFU, RASSF2 / Fold change vs veh, RASSF2 / RFU, WIPF1 / Fold change vs veh, WIPF1 / RFU, LARP1B / Fold change vs veh, LARP1B / RFU, RASA1 / Fold change vs veh, RASA1 / RFU, RB1 / Fold change vs veh, RB1 / RFU, PPFIA1 / Fold change vs veh, PPFIA1 / RFU, MAT2A / Fold change vs veh, MAT2A / RFU, CCT5 / Fold change vs veh, CCT5 / RFU, WDR92 / Fold change vs veh, WDR92 / RFU, CUX1 / Fold change vs veh, CUX1 / RFU, TTC7A / Fold change vs veh, TTC7A / RFU, TMEM135 / Fold change vs veh, TMEM135 / RFU, DEPTOR / Fold change vs veh, DEPTOR / RFU, CPM / Fold change vs veh, CPM / RFU, DNAJB6 / Fold change vs veh, DNAJB6 / RFU, CACNA2D3 / Fold change vs veh, CACNA2D3 / RFU, DTX4 / Fold change vs veh, DTX4 / RFU, TFCP2 / Fold change vs veh, TFCP2 / RFU, GMCL1 /// GMCL1P1 / Fold change vs veh, GMCL1 /// GMCL1P1 / RFU, AEBP2 / Fold change vs veh, AEBP2 / RFU, SNHG1 /// SNORD22 /// SNORD25 /// SNORD26 /// SNORD27 /// SNORD28 /// SNORD29 /// SNORD31 / Fold change vs veh, SNHG1 /// SNORD22 /// SNORD25 /// SNORD26 /// SNORD27 /// SNORD28 /// SNORD29 /// SNORD31 / Fold change (Aza/veh), C12orf56 (ProbeSet 11735607_a_at) / Fold change (ACY-1035/veh), C12orf56 (ProbeSet 11735607_a_at) / Fold change (Aza/veh), FGFR1OP (ProbeSet 11751329_s_at) / Fold change (ACY-1035/veh), FGFR1OP (ProbeSet 11751329_s_at) / Fold change (Aza/veh), VPS36 (ProbeSet 11739960_a_at) / Fold change (ACY-1035/veh), VPS36 (ProbeSet 11739960_a_at) / RFU SYPL1 (11715823_x_at) / Fold change /veh SYPL1 (11715823_x_at) / RFU IGFBP7 (11715501_s_at) / Fold change /veh IGFBP7 (11715501_s_at) / RFU REEP3 (11722064_at) / Fold change /veh REEP3 (11722064_at) / RFU IGLL1 (11728026_x_at) / Fold change /veh IGLL1 (11728026_x_at): dose or concentration left out as unconfirmed. Format: cell-based, human. The settings on record: ProbeSet 11718977_a_at; LIST B.

Regarding `Nc1ccc(-c2cccs2)cc1NC(=O)c1ccc2c(c1)cc(C1CC1)n2CCN1CCOCC1` [ACY-1035], the “Fold change vs veh, CAPN2” value is recorded as 0.88.
